Literature values as cited in patent US20240199566A1, “CATALYTIC SYNTHESIS OF DELTA-VALEROLACTONE (DVL) FROM FURFURAL-DERIVED 2-HYDROXYTETRAHYDROPYRAN (HTHP)” (Wisconsin Alumni Research Foundation, priority 2022, published 2024).

Conditions: stated as a property, no test described

C1=COCCC1 [DHP, 3,4-dihydropyran]
solubility in water: < 1 wt %
